Patent US20140343095A1, “Methods of Diagnosing and Treating Multiple Sclerosis” (The Brigham and Women's Hospital, Inc., priority 2009, published 2014)
Entries after “also recorded” stand apart in the source; their conditions may differ.

Assays:
PARP-1 [1] = target: T1, PARP-1 (Homo sapiens, UniProt P09874); details: Diestel et al. 2003; cited from earlier work
Target sequence in this assay (P09874 whole entry, species assumed): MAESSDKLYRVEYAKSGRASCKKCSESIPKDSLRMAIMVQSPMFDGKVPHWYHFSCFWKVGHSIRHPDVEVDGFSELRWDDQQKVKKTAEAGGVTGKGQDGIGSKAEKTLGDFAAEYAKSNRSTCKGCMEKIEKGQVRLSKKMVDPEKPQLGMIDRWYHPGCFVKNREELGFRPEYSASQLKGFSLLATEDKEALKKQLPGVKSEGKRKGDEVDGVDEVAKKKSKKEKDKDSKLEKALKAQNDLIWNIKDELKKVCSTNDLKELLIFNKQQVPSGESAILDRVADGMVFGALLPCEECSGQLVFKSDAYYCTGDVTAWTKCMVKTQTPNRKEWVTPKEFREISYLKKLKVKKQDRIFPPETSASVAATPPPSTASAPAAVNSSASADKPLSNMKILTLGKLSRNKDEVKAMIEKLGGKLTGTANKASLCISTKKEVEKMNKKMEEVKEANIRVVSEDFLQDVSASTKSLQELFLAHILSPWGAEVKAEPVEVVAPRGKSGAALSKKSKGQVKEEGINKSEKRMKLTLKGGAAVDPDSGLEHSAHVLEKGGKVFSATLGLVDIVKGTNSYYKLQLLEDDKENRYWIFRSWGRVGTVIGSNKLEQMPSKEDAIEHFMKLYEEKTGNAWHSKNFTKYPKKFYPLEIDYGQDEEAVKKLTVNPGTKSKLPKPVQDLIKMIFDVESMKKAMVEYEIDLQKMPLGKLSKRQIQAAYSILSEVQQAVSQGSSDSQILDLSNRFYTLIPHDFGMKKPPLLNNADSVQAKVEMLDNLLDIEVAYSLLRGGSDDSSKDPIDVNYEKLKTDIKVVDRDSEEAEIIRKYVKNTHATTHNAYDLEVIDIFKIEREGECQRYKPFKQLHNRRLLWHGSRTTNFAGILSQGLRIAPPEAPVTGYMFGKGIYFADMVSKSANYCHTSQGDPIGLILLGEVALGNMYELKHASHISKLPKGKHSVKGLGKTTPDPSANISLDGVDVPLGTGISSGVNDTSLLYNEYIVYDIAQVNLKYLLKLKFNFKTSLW

PARP-1 [2] = target: T2, PARP-1 (Mus musculus, UniProt P11103); experiment: Cellular PARP-1 activity in microglia, macrophages or astrocytes; type: cell-based; parameters: host or cells: C8B4 microglia, C8-D1A astrocytes, Raw 264.7 macrophages
Procedure: 5A, a bar graph showing the time course of microglial PARP-1 activation by 15-oxysterols or 7-KC. PARP-1 activity is shown as Mean±SEM. […] (Mean±SEM) 5C, a bar graph showing activation of microglial PARP-1 by 15-HC in the presence of kinase inhibitors (Mean±SEM).
6A, a set of three bar graphs showing PARP-1 activity in microglia, macrophages or astrocytes activated with 15-HC in the presence of blocking antibodies to TLR2 or TLR4, or isotype controls (Mean±SEM).
PARP-1 activity was measured using PARP HT Universal Colorimetric Kit (Trevigen, MD, USA), following manufacturer instructions.
Cells were cultured with DMEM supplemented with 10% fetal bovine serum, 2 mM L-glutamine, 25 mM HEPES, and 1 mM sodium pyruvate. Cells in logarithmic growth were treated with 1 μg/ml of 15-HC for 1, 5, 15, and 30 minutes in serum-free medium. Blocking antibodies (Ebioscience, San Diego, Calif., USA) were added in some experiments at a final concentration of 10 ug/ml.

PARP-1 [3] = target: T1, PARP-1; experiment: FACS-based detection of PARP-1 activity (PAR staining) in human monocytes / PBMCs; type: cell-based; parameters: endogenous in cells; host or cells: human PBMCs / monocytes / dendritic cells / T and B cells from healthy controls and MS patients; details: human monocytes activated by 15-HC
Procedure: FIGS. 11A-B are show the results of FACS-based detection of PARP-1 activity. 11A. a set of five histograms showing PAR staining (as detected by FACS) of PBMCs incubated with 15-HC alone, or in combination with AIQ, blocking antibodies to TLR2 (TLR2 BL), or IC control (TLR2 IC). 11B, a line graph showing the correlation of PAR staining as detected by FACS with PARP-1 enzymatic activity detected on PBMCs activated with different concentration of 15-HC.
14A is a set of fifteen histograms showing PAR staining of PBMCs taken from HC (left column), RRMS (center column) or SPMS (right column) patients and unstimulated (top row) or activated with 15-HC alone (second row), or in combination with AIQ (third row), blocking antibodies to TLR2 (fourth row) or IC control (bottom row). 14B is a bar graph showing the mean fluorescence intensity (MFI)±SD of 5 samples/group from the histograms in 14A.
15A is a set of 24 histograms showing PAR staining of PBMCs taken from HC (left column), RRMS (center column) or SPMS (right column) patients and unstimulated (top row) or activated with pgLPS (second row), polyIC (third row), ecLPS (fourth row), flagellin (row 5), imiquimod (row 6), ssRNA (row 7) or CpG (row 8). 15B is a bar graph showing the mean fluorescence intensity (MFI)±SD of 5 samples/group from the histograms in […].
A new FACS-based method was developed to detect PARP-1 activation based on the intracellular detection of the PARP-1 product PAR with specific antibodies. Briefly, the cells were incubated with antibodies to CD16/32 to block unspecific antibody binding, and then stained for surface markers. After washing, the cells were permeabilized with Fix/Perm (BD), and then stained with rabbit anti-PAR antibodies (or control rabbit IgG) for 30′ at 4° C., followed by anti-rabbit PE for 30′ at room temperature. The samples were then analyzed by FACS.
Target sequence in this assay (P09874 whole entry): as the sequence (P09874 whole entry, species assumed) above

[4] = test system: NOD mice (experimental SPMS); experiment: NOD experimental model of SPMS (MOG35-55 EAE), clinical score and spinal cord histology; type: in vivo, mouse
Procedure: 2A, a line graph showing the results of AIQ treatment when experimental SPMS was induced in ten-week old NOD mice by subcutaneous immunization with […] of MOG35-55 in CFA and Pertussis toxin (150 ng per mouse) given at the time of immunization and 48 hours later. AIQ (3 mg/Kg body weight) was given daily beginning on day 0, n=10 animals per group. A control group was treated with PBS. 2B, a pair of line graphs showing the results of regression analysis of EAE progression (top panel—acute phase, bottom panel—chronic phase). 2C, four images from histopathological analysis of EAE in NOD mice.
This experimental model of SPMS was used to analyze the levels of 15-oxysterols at peak of the acute EAE attack (day 18) and during the progressive phase of EAE (day 55).
150 ng/mouse of pertussis toxin (Sigma) were administered intraperitoneally on days 0 and 2. Clinical signs of EAE were assessed according to the following score: 0, no signs of disease; 1, loss of tone in the tail; 2, hind limb paresis; 3, hind limb paralysis; 4, tetraplegia; 5, moribund.
Image analysis was performed using the software ImageJ (NIH).

PARP-1 [5] = target: T1, PARP-1; experiment: PARP-1 enzymatic activity in human PBMCs (PARP HT Universal Colorimetric Kit); type: cell-based; parameters: endogenous in cells; host or cells: human PBMCs / monocytes / dendritic cells / T and B cells from healthy controls and MS patients; details: healthy controls, 1 ug/ml 15-HC
Procedure: PARP-1 enzymatic activity (10A) and TNFalpha and CCL2 (10B) of PBMCs incubated with 15-HC alone, or in combination with AIQ, blocking antibodies to TLR2 or IC control.
To investigate whether the TLR2/PARP-1 axis is functional in human we activated PBMCs from healthy controls with 15-HC, in the presence or not of PARP-1 or TLR2 inhibitors.
Target sequence in this assay (P09874 whole entry): as the sequence (P09874 whole entry, species assumed) above

PARP-1 [6] = target: T2, PARP-1
Procedure: Microglia and astrocyte activation have been linked to the progressive phase of experimental SPMS (Basso et al., J Clin Invest 118, 1532-1543 (2008)), thus the activation of PARP-1 was analyzed in the CNS of NOD mice during the progressive phase of EAE.
Spinal cord tissue samples from MOG-immunized NOD mice with or without AIQ treatment were collected at day 55, fixed in 4% paraformaldehyde, cryoprotected in 20% sucrose, and frozen in OCT. Spinal cord frozen sections were cut at 10 μm and processed for histological analysis, immunohistochemistry, or immunofluorescence. […] For image analysis, 3 or 4 lumbar spinal cord sections were selected according to regional landmarks from 4 different animals per group. Image analysis was performed using the software ImageJ (NIH). For quantification, level of labeling “threshold” was used as a cut-off to determine positive or negative staining Immunofluorescence was performed using anti-Iba-1 (Wako, VA, USA), anti-GFAP (BD Bioscience, MA, USA) and anti PAR (Trevigen, MD, USA)

splenocytes = experiment: Adaptive encephalitogenic recall response of splenocytes from treated mice (proliferation, cytokines); type: in vivo, mouse; details: AIQ vs control-treated mice
Procedure: FIG. 7 is a set of eight bar graphs showing that the adaptive encephalitogenic immune response is not affected by the inhibition of PARP-1. Splenocytes prepared from control or AIQ-treated mice were activated in vitro with MOG35-55 (right column) or antibodies to CD3 (left column) and the cytokines levels were tested on the supernatant at 48 hours. Top row, IFN-gamma Second row, IL-17. Third row, IL-10. Bottom row, TGF-beta.
Splenocytes and lymph node cells were cultured in X-VIVO medium and plated at 5×10^5 cells per well in the presence of MOG35-55 for 72 hours. During the last 16 hours, cells were pulsed with 1 μCi of [^3H]-thymidine (PerkinElmer) followed by harvesting on glass fiber filters and analysis of incorporated [^3H]-thymidine in a beta-counter (1450 Microbeta, Trilux; PerkinElmer). Supernatants were collect after 48 h of culture for cytokine measurements by ELISA.

[7] = test system: microglia, macrophages or astrocytes; experiment: TNF-α, CCL-2 and NO secretion by microglia, macrophages or astrocytes; type: cell-based, mouse; details: co-incubation with 15-HC
Procedure: FIGS. 4A-D show the results of activation of microglia, macrophages and astrocytes by 15-HC. 4A, a bar graph showing PARP-1 activity in a cell-free system where recombinant PARP-1 was incubated with DNA which as been pretreated with 15-HC or 7-KC. Non-pretreated DNA was used as a negative control and ssb-DNA as a positive control. Data is shown as Mean±SEM. 4B, a pair of bar graphs showing PARP-1 activity measured in microglia, macrophages or astrocytes incubated with 15-HC or 7-KC. The data is shown as the fold of change between vehicle and lipid-treated cells (Mean±SEM). 4C, a pair of bar graphs showing percent inhibition of PARP-1 activity in microglia, macrophages or astrocytes activated with 15-HC or 7-KC […] in the presence of 5-AIQ. 4D, a table showing levels of TNF-α, CCL-2 and NO secretion by 15-HC or 7-KC treated microglia, macrophages or astrocytes (Mean±SEM).
The effect of 15-HC on the activity of cellular PARP-1 was then investigated. […] Thus, 15-HC activates microglia, macrophages and astrocytes through a PARP-1-dependent mechanism.

[8] = NOD mice, AIQ 3 mg/Kg body weight daily from day 0, vs PBS
[9] = spinal cord sections, day 55, progressive phase of NOD EAE

T2 sequence (P11103 whole entry): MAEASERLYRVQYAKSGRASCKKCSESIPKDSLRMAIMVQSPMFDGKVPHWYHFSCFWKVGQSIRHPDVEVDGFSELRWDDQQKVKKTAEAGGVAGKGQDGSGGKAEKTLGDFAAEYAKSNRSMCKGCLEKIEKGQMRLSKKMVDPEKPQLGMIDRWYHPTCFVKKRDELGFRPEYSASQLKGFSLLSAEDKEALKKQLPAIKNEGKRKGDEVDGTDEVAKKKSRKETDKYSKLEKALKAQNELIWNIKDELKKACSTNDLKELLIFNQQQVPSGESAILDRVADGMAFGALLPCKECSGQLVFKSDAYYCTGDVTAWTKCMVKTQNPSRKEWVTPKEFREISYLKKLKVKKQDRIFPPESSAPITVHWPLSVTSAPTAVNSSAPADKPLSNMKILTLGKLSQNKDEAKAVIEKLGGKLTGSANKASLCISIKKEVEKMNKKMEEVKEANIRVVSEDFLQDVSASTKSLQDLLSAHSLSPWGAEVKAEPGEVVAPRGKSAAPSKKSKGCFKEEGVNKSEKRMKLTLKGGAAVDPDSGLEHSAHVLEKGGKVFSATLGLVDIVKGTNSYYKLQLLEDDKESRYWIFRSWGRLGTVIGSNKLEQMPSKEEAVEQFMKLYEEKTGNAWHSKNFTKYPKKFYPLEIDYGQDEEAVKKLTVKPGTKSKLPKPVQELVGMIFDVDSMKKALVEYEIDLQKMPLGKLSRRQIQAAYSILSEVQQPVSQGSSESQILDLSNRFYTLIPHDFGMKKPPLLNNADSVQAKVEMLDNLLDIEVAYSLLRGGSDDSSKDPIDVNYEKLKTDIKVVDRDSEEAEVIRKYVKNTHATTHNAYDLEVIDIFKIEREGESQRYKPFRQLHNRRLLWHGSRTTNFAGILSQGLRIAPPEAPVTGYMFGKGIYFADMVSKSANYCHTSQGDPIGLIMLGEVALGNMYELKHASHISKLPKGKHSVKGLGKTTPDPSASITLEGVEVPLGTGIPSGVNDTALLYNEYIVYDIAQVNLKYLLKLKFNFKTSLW

Compound	activation of the nuclear enzyme PARP-1 (PARP-1 [1])	incubation time resulting in activation of PARP-1 (PARP-1 [2]; macrophages or microglia)	blockade of 15-HC-induced PAR staining (FACS) (PARP-1 [3])	clinical signs of progressive EAE [4, 8]	effect on the acute phase of EAE [4, 8]	axonal loss (Bielschowsky's silver staining) [4, 9]	demyelination (luxol fast blue) [4, 9]	inhibition of 15-HC-induced PARP-1 enzymatic activity in human PBMCs (PARP-1 [5])	PARP-1 activity in CNS CD11b+ cells (PARP-1 [6]; cells isolated at day 55 from AIQ or control-treated mice)	PARP-1 activation in CNS (PAR staining) (PARP-1 [6]; progressive phase of NOD EAE, data not shown)	proliferative recall response of splenocytes (splenocytes; activation with MOG35-55 or antibodies to CD3)	profile of cytokine secretion of splenocytes (splenocytes; supernatants at 48 h, IFN-gamma, IL-17, IL-10, TGF-beta)	inhibition of 15-HC-induced secretion of NO, CCL-2 and TNF-α [7]	inhibition of PARP-1 activation by 15-HC (PARP-1 [2]; microglia, macrophages or astrocytes activated with 15-HC)
CC(C)CCC[C@@H](C)[C@H]1CC[C@H]2[C@@H]3C(=O)C=C4C[C@@H](O)CC[C@]4(C)[C@H]3CC[C@]12C [7-KC, 7-ketocholesterol, reference compound]	activate	longer incubation times were required												
Nc1cccc2c(=O)[nH]ccc12 [AIQ, 5-aminoisoquinolinone]			could be blocked	significant inhibition	little or no effect	significant decrease; also recorded: significantly reduced	significant decrease; also recorded: significantly reduced	can be inhibited	inhibition	decreased	No statistical differences	no differences	could be inhibited	could be inhibited
